Converted amounts (≈) assume the structure as drawn. Like-named read-outs stand apart in the source and are kept apart here.
Columns and labels:
MRSA (2658 RCMB) = test: MIC against MRSA (2658 RCMB), broth dilution; assay type: cell-based, Staphylococcus aureus; settings: for MIC: Staphylococcus aureus
Experimental: Bacteria were cultured in cation-adjusted Mueller Hinton broth in a 96-well plate. Compounds, using triplicate samples, were added to the plate and serially diluted. […] Plates were visually inspected and the MIC was categorized as the concentration at which no visible growth of bacteria was observed. The average of triplicate MIC determinations is reported.
A bacterial solution equivalent to 0.5 McFarland standard was prepared and diluted in cation-adjusted Mueller-Hinton broth (CAMHB) to achieve a bacterial concentration of about 5×10^5 CFU/mL and seeded in 96-well plates. Enterococcus faecium was diluted in brain heart infusion broth. Enterococcus faecalis, Streptococcus pneumonia and Listeria monocytogenes were diluted in tryptone soya broth (TSB).

[1] = Table 1, MRSA (2658 RCMB), read-out: MIC ± SD
[2] = Table 7, initial screening, MRSA (2658 RCMB), read-out: minimum inhibitory concentration (MIC)
[3] = Table 7, initial screening, MRSA (2658 RCMB)

Compound | MIC (MRSA (2658 RCMB); [1]) [µg/mL] | melting point | MIC (MRSA (2658 RCMB); [2]) [µg/mL] | also measured
CCCCc1ccc(-c2nc(C)c(C(=O)/C=C/N(C)C)s2)cc1 [Compound 4, (E)-1-[2-(4-Butylphenyl)-4-methylthiazol-5-yl]-3-(dimethyl-amino)prop-2-en-1-one] | > 25 | 105.4 °C | – | –
CCCCc1ccc(-c2nc(C)c(-c3ccnc(NC)n3)s2)cc1 [Compound 9, 4-[2-(4-Butylphenyl)-4-methylthiazol-5-yl]-N-methylpyrimidin-2-amine] | > 25 | 227 °C (dec.) | – | antibacterial (anti-MRSA) activity, in words (MRSA (2658 RCMB); Table 1): dramatically decreased the antibacterial activity
CCCCc1ccc(-c2nc(C)c(-c3ccnc(NC#N)n3)s2)cc1 [Compound 10, N-{4-[2-(4-Butylphenyl)-4-methylthiazol-5-yl]pyrimidin-2-yl}cyanamide] | 18.7 ± 2.3 (≈ 53.5 µM) | 118 °C | – | antibacterial (anti-MRSA) activity, in words (MRSA (2658 RCMB); Table 1): dramatically decreased the antibacterial activity
CCCCc1ccc(-c2nc(C)c(-c3ccnc(NC(N)=S)n3)s2)cc1 [Compound 12, 1-{4-[2-(4-Butylphenyl)-4-methylthiazol-5-yl]pyrimidin-2-yl}thiourea] | – | 212 °C (dec.) | – | MIC (MRSA (2658 RCMB); MRSA, read-out: MIC ± SD): > 25 µg/mL; antibacterial (anti-MRSA) activity, in words (MRSA (2658 RCMB); Table 1): complete abolishment of the anti-MRSA activity
CCCCc1ccc(-c2nc(C)c(-c3ccnc(-c4cccnc4)n3)s2)cc1 [Compound 13, 2-(4-Butylphenyl)-4-methyl-5-[2-(38yridine-3-yl)pyrimidin-4-yl]thiazole] | – | – | – | antibacterial (anti-MRSA) activity, in words (MRSA (2658 RCMB); Table 1): exhibited no antibacterial activity; MIC ± SD (MRSA (2658 RCMB); Table 1, MRSA (2658 RCMB)): 17.2 ± 0.4 µg/mL (≈ 44.5 µM)
CCCCc1ccc(-c2nc(C)c(-c3ccnc(-n4cccn4)n3)s2)cc1 [Compound 14, 2-(4-Butylphenyl)-5-[2-(1H-pyrazol-1-yl)pyrimidin-4-yl]-4-methylthiazole] | > 25 | 163.7 °C | – | antibacterial (anti-MRSA) activity, in words (MRSA (2658 RCMB); Table 1): exhibited no antibacterial activity
CCCCc1ccc(-c2nc(C)c(-c3ccnc(N4CCCC4)n3)s2)cc1 [Compound 15, 2-(4-Butylphenyl)-4-methyl-5-(2-(pyrrolidin-1-yl)pyrimidin-4-yl)thiazole] | > 25 | 153.7 °C | – | antibacterial (anti-MRSA) activity, in words (MRSA (2658 RCMB); Table 1): lacks any antibacterial activity
CCCCc1ccc(-c2nc(C)c(-c3ccn4ncnc4n3)s2)cc1 [Compound 16, 5-([1,2,4]Triazolo[1,5-a]pyrimidin-5-yl)-2-(4-butylphenyl)-4-methylthiazole] | > 25 | – | – | –
CCCCc1ccc(-c2nc(C)c(-c3ccnc(NC(=N)N)n3)s2)cc1 [Compound 18, 2-(4-Butylphenyl)-5-(2-guanidinylpyrimidin-4-yl)-4-methylthiazole] | 1.56 (≈ 4.26 µM) | – | – | MIC ± SD (MRSA (2658 RCMB); Table 1, MRSA (2658 RCMB)): 1.56 ± 0.10 µg/mL (≈ 4.26 µM)
CCCCc1ccc(-c2nc(C)c(-c3ccnc(N=C(N(C)C)N(C)C)n3)s2)cc1 [Compound 19, 2-{4-[42-(4-Butylphenyl)-4-methylthiazol-5-yl]pyrimidin-2-yl}-1,1,3,3-tetramethyl guanidine] | – | – | – | antibacterial (anti-MRSA) activity, in words (MRSA (2658 RCMB); Table 1): revealed no antibacterial efficacy; MIC ± SD (MRSA (2658 RCMB); Table 1, MRSA (2658 RCMB)): >25 µg/mL
Cc1nc(-c2ccc(I)cc2)sc1-c1ccnc(N)n1 [Compound 23, 4-[2-(4-Iodophenyl)-4-methylthiazol-5-yl]pyrimidin-2-amine] | > 25 | – | – | –
Cc1nc(-c2ccc(C3=CCC(C)C3)cc2)sc1-c1ccnc(N)n1 (stereo not drawn) [Compound 28, 4-{4-Methyl-2-[4-(4-methylcyclopent-1-en-1-yl)phenyl]thiazol-5-yl}pyrimidin-2-amine] | 3.8 ± 0.4 (≈ 10.9 µM) | 141 °C | – | –
Cc1nc(-c2ccc(C3=CCCCCC3)cc2)sc1-c1ccnc(N)n1 [Compound 30, 4-{2-[4-(Cyclohept-1-en-1-yl)phenyl]-4-methylthiazol-5-yl}pyrimidin-2-amine] | 3.12 (≈ 8.61 µM) | 164 °C | – | –
Cc1nc(-c2ccc(C3=CCCCCCC3)cc2)sc1-c1ccnc(N)n1 [Compound 31, 4-{2-[4-(Cyclooct-1-en-1-yl)phenyl]-4-methylthiazol-5-yl}pyrimidin-2-amine] | 5.6 ± 0.1 (≈ 14.9 µM) | 188 °C | – | –
Cc1nc(-c2ccc(C(C)(C)C)cc2)sc1-c1ccnc(N)n1 [Compound 40, 4-(2-(4-(tert-Butyl)phenyl)-4-methylthiazol-5-yl)pyrimidin-2-amine] | – | – | 6.25 (≈ 19.3 µM) | –
CNc1nccc(-c2sc(-c3ccc(C(C)(C)C)cc3)nc2C)n1 [Compound 41, 4-(2-(4-(tert-Butyl)phenyl)-4-methylthiazol-5-yl)-N-methylpyrimidin-2-amine] | – | – | 25 (≈ 73.9 µM) | –
Cc1nc(-c2ccc(C(C)(C)C)cc2)sc1-c1ccnc(N2CCCC2)n1 [Compound 42] | – | – | – | minimum inhibitory concentration (MIC) (MRSA (2658 RCMB); [3]): >50 µg/mL
Cc1nc(-c2ccc(C(C)(C)C)cc2)sc1-c1ccnc(-c2cccnc2)n1 [Compound 43, 2-(4-(tert-Butyl)phenyl)-4-methyl-5-(2-(pyridin-3-yl)pyrimidin-4-yl)thiazole] | – | – | > 50 | –
Cc1nc(-c2ccc(C(C)(C)C)cc2)sc1-c1ccnc(N(C)C)n1 [Compound 50, 4-(2-(4-(tert-Butyl)phenyl)-4-methylthiazol-5-yl)-N,N-dimethylpyrimidin-2-amine] | – | – | > 50 | –
Cc1nc(-c2ccc(C(C)(C)C)cc2)sc1-c1ccnc(N2CCC2)n1 [Compound 51, 5-(2-(Azetidin-1-yl)pyrimidin-4-yl)-2-(4-(tert-butyl)phenyl)-4-methylthiazole] | – | – | > 50 | –
Cc1nc(-c2ccc(C(C)(C)C)cc2)sc1-c1ccnc(N2CCOCC2)n1 [Compound 52, 4-(4-(2-(4-(tert-Butyl)phenyl)-4-methylthiazol-5-yl)pyrimidin-2-yl) morpholine] | – | – | 25 (≈ 63.4 µM) | –
Cc1nc(-c2ccc(C(C)(C)C)cc2)sc1-c1ccnc(N2CC(O)C2)n1 [Compound 53, 1-(4-(2-(4-(tert-Butyl)phenyl)-4-methylthiazol-5-yl)pyrimidin-2-yl)azetidin-3-ol] | – | – | 6.25 (≈ 16.4 µM) | –
Cc1nc(-c2ccc(C(C)(C)C)cc2)sc1-c1ccnc(NN)n1 [Compound 55, 2-(4-(tert-Butyl)phenyl)-5-(2-hydrazinylpyrimidin-4-yl)-4-methylthiazole] | – | – | 1.56 (≈ 4.6 µM) | –
Cc1nc(-c2ccc(C(C)(C)C)cc2)sc1-c1ccnc(NC(=N)N)n1 [Compound 56, 1-(4-(2-(4-(tert-Butyl)phenyl)-4-methylthiazol-5-yl)pyrimidin-2-yl)guanidine] | – | – | 1.56 (≈ 4.26 µM) | –
CNC(=N)Nc1nccc(-c2sc(-c3ccc(C(C)(C)C)cc3)nc2C)n1 [Compound 57, 1-(4-(2-(4-(tert-Butyl)phenyl)-4-methylthiazol-5-yl)pyrimidin-2-yl)-3-methylguanidine] | – | – | 1.56 (≈ 4.1 µM) | –
Cc1nc(-c2ccc(C(C)(C)C)cc2)sc1-c1ccnc(N=C(N(C)C)N(C)C)n1 [Compound 59, N-2-(4-(2-(4-(tert-Butyl)phenyl)-4-methylthiazol-5-yl)pyrimidin-2-yl)-1,1,3,3-tetramethylguanidine] | – | – | – | minimum inhibitory concentration (MIC) (MRSA (2658 RCMB); [3]): >50 µg/mL
Cc1nc(-c2ccc(C(C)(C)C)cc2)sc1-c1ccnc(NC(=N)N2CCCC2)n1 [Compound 60, N-(4-(2-(4-(tert-Butyl)phenyl)-4-methylthiazol-5-yl)pyrimidin-2-yl) pyrrolidine-1-carboximidamide] | – | – | 50 (≈ 119 µM) | –
Cc1nc(-c2ccc(C(C)(C)C)cc2)sc1-c1ccnc(NC(=N)N2CCN(C)CC2)n1 [Compound 62, N-(4-(2-(4-(tert-Butyl)phenyl)-4-methylthiazol-5-yl)pyrimidin-2-yl)-4-methylpiperazine-1-carboximidamide] | – | – | 3.12 (≈ 6.94 µM) | –
